Results as given in patent publication US9296745B2, “Diacylglycerol acyltransferase 2 inhibitors” (Pfizer Inc., priority 2012, dated 2016).
Where two headings read alike, the source gives them in different places.

Experiments:
DGAT2 = DGAT2 (Homo sapiens (Human), UniProt Q96PD7); assay: IC50 determination for DGAT2 inhibitors in human hepatocytes ([1,3-14C]-glycerol incorporation into lipids); type: cell-based; settings: average IC50; cryopreserved human hepatocytes, selective DGAT1 inhibitor (3 μM) in all wells, 3 hour incubation with [1,3-14C]-glycerol; read-out: IC50 (nM) in primary human hepatocyte
DGAT2, sequence (Q96PD7 whole entry): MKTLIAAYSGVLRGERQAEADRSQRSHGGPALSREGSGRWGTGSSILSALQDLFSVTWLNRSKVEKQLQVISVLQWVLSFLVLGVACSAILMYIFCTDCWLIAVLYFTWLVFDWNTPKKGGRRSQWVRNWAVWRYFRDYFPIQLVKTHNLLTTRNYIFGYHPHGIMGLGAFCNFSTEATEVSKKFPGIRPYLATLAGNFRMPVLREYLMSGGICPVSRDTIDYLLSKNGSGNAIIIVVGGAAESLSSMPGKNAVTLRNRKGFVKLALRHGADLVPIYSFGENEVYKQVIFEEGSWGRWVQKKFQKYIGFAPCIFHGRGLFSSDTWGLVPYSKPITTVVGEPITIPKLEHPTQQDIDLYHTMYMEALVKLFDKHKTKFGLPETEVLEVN
Protocol: For evaluation of the effects of DGAT2 inhibitors in a cell-based setting, cryopreserved human hepatocytes (Lot QOC, Celsis, Chicago, Ill.) were thawed and plated onto type I collagen-coated plates according to the manufacturer's instructions. After 24 hours overnight recovery period, the cells were overlayed with media containing 250 μg/ml Matrigel (BD Biosciences, San Jose, Calif.). The following day, media was aspirated and replaced with serum-free Williams Media E (Life Technologies, Grand Island, N.Y.) containing 400 μM sodium dodecanoate (Sigma-Aldrich, St. Louis, Mo.). Forty minutes later, DGAT2 inhibitors (prepared as 100× stocks in 25% DMSO, 75% Williams' Media E) were added to the desired final concentration. […] After a 20 minute preincubation, 0.2 μCi [1,3-^14C]-glycerol (American Radio Chemicals, St. Louis, Mo.) was added to each well and mixed by gentle pipetting prior to a 3 hour incubation. At this point, media was aspirated and the cells were lysed in isopropyl alcohol:tetrahydrofuran (9:1) prior to centrifugation at 3000 rpm for 5 minutes. Radiolabeled lipids were resolved using a 2-solvent system by thin layer chromatography using standard technique (solvent 1 contained ethyl acetate: isopropyl alcohol: chloroform:methanol:0.25% potassium chloride in water (100:100:100:40.2:36.1, v/v/v/v) and solvent 2 contained hexane: diethyl ether: acetic acid (70:27:3, v/v/v)). After separation, radiolabeled lipids were visualized using a Molecular Dynamics' PhosphorImager system. The half maximal inhibitory concentrations (IC50 values) were determined using Graph Pad Prism (GraphPad Software, Inc., La Jolla, Calif.).

Human DGAT2 (hDGAT2) = Human DGAT2 (hDGAT2) (Homo sapiens (Human), UniProt Q96PD7); assay: In vitro DGAT2 assay, IC50 determination with hDGAT2 membrane fraction; type: biochemical; settings: geometric mean
Human DGAT2 (hDGAT2), sequence (Q96PD7 whole entry): as above
Method in brief: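 CHAPS-solubilized membrane fraction of FLAG-tagged hDGAT2 from baculovirus-infected SF9 cells (0.01 mg/mL) in 100 mM Hepes-NaOH pH 7.4, 20 mM MgCl2, 200 nM methyl arachidonyl fluorophosphonate; compounds pre-incubated 20 min with 0.04% BSA. Reaction 40 min at room temperature, stopped with H3PO4. [^14C]tridecanoylglycerol in organic phase counted; 11-point geometric mean IC50.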

[1] = background for complete inhibition of DGAT2 obtained with 50 μM (1R,2R)-2-({3′-Fluoro-4′-[(6-fluoro-1,3-benzothiazol-2-yl)amino]-1,1′-biphenyl-4-yl}carbonyl)cyclopentanecarboxylic acid, read-out: DGAT2 IC50
[2] = background for complete inhibition of DGAT2 obtained with Example 196-A instead of the cyclopentanecarboxylic acid reference, read-out: DGAT2 IC50 (nM), values in the parentheses

SMILES | IC50 (DGAT2) [nM] | IC50 (Human DGAT2 (hDGAT2); [1]) [nM] | IC50 (Human DGAT2 (hDGAT2); [2]) [nM]
O=C([C@@H]1CCCN(c2ccc3nc(-c4ccnc(C5CC5)n4)[nH]c3n2)C1)N1CCCC1 [Example 95, (R)-(1-(2-(2-Cyclopropylpyrimidin-4-yl)-3H-imidazo[4,5-b]pyridin-5-yl)piperidin-3-yl)(pyrrolidin-1-yl)methanone] | 15.9 | 18.2 | 
O=C([C@@H]1CCCN(c2ncc3nc(C4(n5cc(Cl)cn5)CC4)[nH]c3n2)C1)N1CCCC1 [Example 108, (R)-(1-(8-(1-(4-Chloro-1H-pyrazol-1-yl)cyclopropyl)-9H-purin-2-yl)piperidin-3-yl)(pyrrolidin-1-yl)methanone] | 2.8 | 28.7 | 26.2
O=C([C@H]1CN(c2ccc3nc(C4(n5cc(Cl)cn5)CC4)[nH]c3n2)CCO1)N1CCCC1 [Example 141, (R)-(4-(2-(1-(4-Chloro-1H-pyrazol-1-yl)cyclopropyl)-3H-imidazo[4,5-b]pyridin-5-yl)morpholin-2-yl)(pyrrolidin-1-yl)methanone] | 10.7 | 354 | 301
O=C([C@H]1CN(c2ccc3nc(-c4cccc(C(F)F)n4)[nH]c3n2)CCO1)N1CCCC1 [Example 175, (R)-(4-(2-(6-(Difluoromethyl)pyridin-2-yl)-3H-imidazo[4,5-b]pyridin-5-yl)morpholin-2-yl)(pyrrolidin-1-yl)methanone] | 71.7 | 91.3 | 
C[C@@H](c1nc2ccc(N3CCC[C@@H](C(=O)N4CCCC4)C3)nc2[nH]1)n1cc(Cl)cn1 [Example 196-A, ((R)-1-(2-((S)-1-(4-Chloro-1H-pyrazol-1-yl)ethyl)-3H-imidazo[4,5-b]pyridin-5-yl)piperidin-3-yl)(pyrrolidin-1-yl)methanone] | 4.6 | 14.5 | 20.6
C[C@H](c1nc2ccc(N3CCC[C@@H](C(=O)N4CCCC4)C3)nc2[nH]1)n1cc(Cl)cn1 [Example 197, ((R)-1-(2-((R)-1-(4-chloro-1H-pyrazol-1-yl)ethyl)-3H-imidazo[4,5-b]pyridin-5-yl)piperidin-3-yl)(pyrrolidin-1-yl)methanone] | 5.5 | 33.7 | 
C[C@@H](c1nc2cnc(N3CCC[C@@H](C(=O)N4CCCC4)C3)nc2[nH]1)n1cc(Cl)cn1 [Example 198, ((R)-1-(8-((S)-1-(4-Chloro-1H-pyrazol-1-yl)ethyl)-9H-purin-2-yl)piperidin-3-yl)(pyrrolidin-1-yl)methanone] | 7.8 | 43 | 
C[C@H](c1nc2cnc(N3CCC[C@@H](C(=O)N4CCCC4)C3)nc2[nH]1)n1cc(Cl)cn1 [Example 199, ((R)-1-(8-((R)-1-(4-chloro-1H-pyrazol-1-yl)ethyl)-9H-purin-2-yl)piperidin-3-yl)(pyrrolidin-1-yl)methanone] | 2.5 | 18.9 | 32.9
O=C([C@@H]1CCCN(c2ncc3nc(C4(n5cc(F)cn5)CC4)[nH]c3n2)C1)N1CCCC1 [Example 209, (R)-(1-(8-(1-(4-Fluoro-1H-pyrazol-1-yl)cyclopropyl)-9H-purin-2-yl)piperidin-3-yl)(pyrrolidin-1-yl)methanone] | 8.9 | 101 | 
